Data on two molecules can be found in patent publication US9133235B2, “Macrocyclic antagonists of the motilin receptor for treatment of gastrointestinal dysmotility disorders” (Ocera Therapeutics, Inc., priority 2006, dated 2015).

By Tmax is commonly meant the time at which the peak concentration occurs. Broadly, the half-life is the time needed for the level to fall by half in the phase considered. Low readings indicate fast loss, high ones slow loss. Broadly, the AUC(0-inf) is total exposure, with the tail of the curve extrapolated. For orientation: Cmax means the highest concentration seen after dosing.

Data set [1] concerns Caco-2 cells. The experiment in a line: Caco-2 permeability. The data set is classed as in vitro ADME, human. An excerpt: H. Determination of Caco-2 Permeability
The Caco-2 cell line, derived from a human colorectal carcinoma, has become an established in vitro model for the prediction of drug absorption across the human intestine. (Sun, D.; Yu, L. X.; Hussain, M. A.; Wall, D. A.; Smith, R. L.; Amidon, G. L. Curr. Opin. Drug Discov. Devel. 2004, 7, 75-85; Bergstrom, C. A. Basic Clin. Pharmacol. Toxicol. 2005, 96, 156-61; Balimane, P. V.; Han, Y. H.; Chong, S. AAPS J 2006, 8, E1-13; Shah, P.; Jogani, V.; Bagchi, T.; Misra, A. Biotechnol. Prog. 2006, 22, 186-198) When cultured on semi-permeable membranes, Caco-2 cells differentiate into a highly functionalized epithelial barrier with remarkable morphological and biochemical similarity to the small intestinal columnar epithelium. Fully differentiated cell monolayers can be used to assess the membrane transport properties of novel compounds.
Permeability across the Caco-2 cell layer was determined by growing the cells on a membrane placed between two (donor and acceptor) chambers. Drug candidates are typically added to the apical (A) side of the cell layer and their appearance in the basolateral (B) side is measured over incubation time. Permeability in this direction represents intestinal absorption. Permeability may also be determined from the basolateral to the apical side of the Caco-2 cell. […]
Permeability (10 μM) for compounds of the invention in the apical to basolateral and basolateral to apical direction were tested in duplicate. Samples will be collected from the donor and acceptor chambers at the beginning (0 min) and following 60 min of incubation at 37° C. and stored frozen at −70° C. until bioanalysis. Samples for each test compound generated from the Caco-2 permeability assay were further analyzed by LC-MS-MS. The permeability of [^3H]-mannitol and [^3H]-propranolol were determined in parallel as controls.
The permeability coefficient (Papp) of each compound and radiolabeled standard was determined using the following equation:
[formula] where dQ/dT represents the permeability rate, Ci denotes the initial concentration in the donor compartment, and A represents the surface area of the filter. Ci is determined from the mean concentration of duplicate samples taken prior to addition to the donor compartment. Permeability rates were calculated by plotting the cumulative amount of compound measured in the acceptor compartment over time and determining the slope of the line by linear regression analysis. The duplicate and mean apical to basolateral and basolateral to apical Papp's were reported for each compound and standard.
For orientation: Caco-2 monolayers are a common model of the intestinal barrier.

The nature of data set [2]: Oral bioavailability in rat of representative formulations of compound 552. It is filed as in vivo. An excerpt: The pharmacokinetic behavior of compound of the invention can be ascertained by methods well known to those skilled in the art. (Wilkinson, G. R. “Pharmacokinetics: The Dynamics of Drug Absorption, Distribution, and Elimination” in Goodman & Gilman's The Pharmacological Basis of Therapeutics, Tenth Edition, Hardman, J. G.; Limbird, L. E., Eds., McGraw Hill, Columbus, Ohio, 2001, Chapter 1.) The following method was used to investigate the pharmacokinetic parameters (elimination half-life, total plasma clearance, etc.) for intravenous, subcutaneous and oral administration of compounds of the present invention.
Preparation of Representative Formulations of Compounds of the Invention
The pharmacokinetic parameters of representative formulations are determined through established methods known to those skilled-in the art as previously referenced in Method 3-I. Results with representative formulations for a representative compound of the present invention are shown below.

The test system of data set [3] is isolated colonic segments from the shrew. The experiment in a line: Contractile activity of isolated muscle strips of the shrew. An excerpt: J. Evaluation of Contractile Activity of Isolated Muscle Strips from the Stomach, Duodenum and Colon of the Shrew.
Motilin (threshold concentration of 10^−8 M) enhances contractions induced by electrical field stimulation (4 Hz) by a post-ganglionic interaction with the cholinergic neurotransmission. At higher concentrations, motilin causes a tonic contraction interacting directly with the antral smooth muscle. Analogously, the effects of motilin and [Nle^13]-motilin (Calbiochem), as selective agonists of the motilin receptor, on smooth muscle strips isolated from the gastric antrum, the circular muscle of the duodenum and the colon of the shrew were investigated. Immunohistochemical studies have shown that endocrine cells in the GI tract of the musk shrew express motilin (Kanamori, Y.; Nakazawa, S.; Kitoh, J.; Hoshino, M. The distribution of endocrine cells in the mucosa of the gastrointestinal tract of the house musk shrew, Suncus murinus (Insectivora). Cell. Tissue Res. 1989, 258, 365-71; Kitamura, N.; Yamada, J.; Watanabe, T.; Yamashita, T. An immunohistochemical study on the distribution of endocrine cells in the gastrointestinal tract of the musk shrew, Suncus murinus. Histol Histopathol. 1990, 5, 83-88.) Shrews were fasted for 8-10 h, euthanized with CO2 inhalation, and the stomach, the duodenum and colon isolated immediately and placed in Krebs buffer aerated with 95% O2 and 5% CO2. Specifically, mucosa-free circular muscle strips were isolated from the antral region, the duodenum and the colon using a dissecting microscope. Isometric contractions were recorded in organ baths following equilibration at optimal tension using the PowerLab data acquisition system. […]
To define the effect of test compounds on different regions of the GI tract of the shrew (gastric antrum, […] and colon) and to evaluate the antagonist affinity of test compounds in this model system, the ability of varying concentrations of test compound to antagonize the motilin or [Nle^13]-motilin-induced contractions was measured in organ baths as described above. […]

Setting [4] is: oral 8 mg/kg, 5% HP-β-CD in water.
Setting [5] is: oral 8 mg/kg, Cremophor EL/Lysorbate 80/Soybean oil.
Where [6] appears, read: oral 8 mg/kg, Oleic Acid/Labrafil.
The mark [7] stands for this setting: plasma, IV 2 mg/kg, 5% HP-β-CD in water.
Where [8] appears, read: plasma, iv, 2 mg/kg, IV 2 mg/kg, 5% HP-β-CD in water.
The mark [9] stands for this setting: plasma, po, 8 mg/kg, oral 8 mg/kg, 5% HP-β-CD in water.
Setting [10] is: plasma, po, 8 mg/kg, oral 8 mg/kg, Cremophor EL/Lysorbate 80/Soybean oil.
The mark [11] stands for this setting: plasma, po, 8 mg/kg, oral 8 mg/kg, Oleic Acid/Labrafil.

SMILES strings stand for the structures. “And” between values parts separate entries of the source, which are not always exact repeats. Identical values can stand only once.

On to `CC(C)[C@H]1NC(=O)[C@@H](Cc2cccc(C(F)(F)F)c2)NCCOc2ccccc2CCCNC(=O)[C@H](CN(C)C)NC1=O` [Compound 502], for which the “Papp A to B” value in data set [1] (10 μM, apical to basolateral, 60 min, 37° C.) is given as 5 cm/sec × 10^−6. Moreover, the “Papp B to A” value in data set [1] (10 μM, basolateral to apical, 60 min, 37° C.) came to 11 cm/sec × 10^−6. For the same molecule, the “B to A/A to B” value in data set [1] (ratio of Papp) turned out to be 2.
For `CCC[C@@H]1NC(=O)[C@@H](C(C)C)NC(=O)[C@@H](Cc2ccc(O)c(Cl)c2)N[C@@H](C)COc2ccccc2CCCNC1=O` [Compound 552], the results for the “F (%) (average)” value in data set [2] (setting [4]), in data set [2] (setting [5]) and in data set [2] (setting [6]) were 10 ± 5%, 16 ± 1% and 14 ± 7%, respectively. The “Tmax (min)” value is 5/15 in data set [2] (setting [4]), 15/30 in data set [2] (setting [5]) and 30/60 in data set [2] (setting [6]). Besides, the “F (%) (individual results)” value in data set [2] (oral 8 mg/kg, 5% HP-β-CD in water, 8 mg/kg) is 6% and 15% and 9%; in data set [2] (oral 8 mg/kg, Cremophor EL/Lysorbate 80/Soybean oil, 8 mg/kg), 18% and 15% and 16%; in data set [2] (oral 8 mg/kg, Oleic Acid/Labrafil, 8 mg/kg) it was 7% and 21% and 15%. Also, in data set [2] (setting [7]), the Clearance was determined as 55 ± 10 mL/min/kg. Further, in data set [2] (setting [7]), the Tmax is 5 min. The half-life in data set [2] (setting [7]) turned out to be 45 ± 13 min. Besides, the AUC(0-inf) in data set [2] (setting [8]) is 616 ng·h/mL; in data set [2] (setting [9]) it was 255 ng·h/mL; in data set [2] (setting [10]) it was 397 ng·h/mL; in data set [2] (setting [11]), 357 ng·h/mL. For the same molecule, the Cmax turned out to be 1720 ± 299 ng/mL in data set [2] (setting [8]), 369 ± 97 ng/mL in data set [2] (setting [9]), 229 ± 162 ng/mL in data set [2] (setting [10]) and 143 ± 77 ng/mL in data set [2] (setting [11]). The “effect on contractile response to 0.3 μM [Nle^13]-motilin” value in data set [3] (0.01 μM-10 μM, FIG. 18) was “dose-dependent inhibition”. In addition, the “effect on contractile response to 0.3 μM motilin” value in data set [3] (0.01 μM-10 μM, FIG. 18) is on record as “dose-dependent inhibition”. Also, the “change in basal contractile activity” value in data set [3] (data not shown) is “did not cause a significant change”.
